Test results from paper PMC9229919, “4-Aminoquinoline-Based Adamantanes as Potential Anticholinesterase Agents in Symptomatic Treatment of Alzheimer’s Disease” (Pharmaceutics, 2022).
Read-outs that look alike come from different tables or passages of the source.

Legend:
[1] = Ferric reducing antioxidant power (FRAP) assay; conditions: for FRAP: mean ± standard error of three experiments;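 as to FRAP: expressed as µM Fe2+ equivalents from an FeSO4·7H2O standard curve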
Protocol: . All the chemicals were purchased from Sigma-Aldrich (St. Louis, MO, USA), except for tripyridyltriazine (TPTZ) (Fluka, Buchs, Switzerland) and FeCl3 (Kemika, Zagreb, Croatia). The FRAP assay was assessed according to Benzie and Strain [53] with slight procedure adjustments for 96-well microplates. The method is based on the reduction of the ferric-tripyridyltriazine (Fe^3+-TPTZ) complex to ferrous tripyridyltriazine (Fe^2+-TPTZ) by the action of electron-donating compounds at a low pH. Briefly, the FRAP reagent was prepared by mixing acetate buffer (300 mM, pH 3.6), a solution of 10 mM TPTZ in 40 mM HCl, and 20 mM FeCl3 at 10:1:1 (v/v/v). Then, 240 μL of FRAP reagent and 10 μL of sample solution were added to a 96-well plate and incubated at 37 °C for 60 min. The absorbance was measured at 593 nm using a microplate reader (Infinite M200PRO, Tecan Austria GmbH, Salzburg, Austria) against a blank. The reducing capacity was determined for 10 and 100 µM compound concentrations. […]. All measurements were performed in three independent experiments. FRAP values, denominating the reduction of ferric-tripyridyltriazine (Fe^3+-TPTZ) to ferrous tripyridyltriazine (Fe^2+-TPTZ) by 4-aminoquinolines were calculated based on a standard curve obtained using […].

[2] = Reverse-phase thin-layer chromatographic lipophilicity (RF, RM0); assay type: physicochemical; conditions: for RM0: intercept of RM = RM0 + bC; for b: slope of RM = RM0 + bC; for RF, Methanol/Water/Hydrochloric acid (conc.), mobile phase I / RF, Dioxane/Water/Hydrochloric acid (conc.), mobile phase II / RF, Methanol/Water/Hydrochloric acid (conc.), mobile phase II / RF, Acetone/Water/Hydrochloric acid (conc.), mobile phase III / RF, Dioxane/Water/Hydrochloric acid (conc.), mobile phase III / RF, Methanol/Water/Hydrochloric acid (conc.), mobile phase III / RF, Dioxane/Water/Hydrochloric acid (conc.), mobile phase IV / RF, Acetone/Water/Hydrochloric acid (conc.), mobile phase IV / RF, Methanol/Water/Hydrochloric acid (conc.), mobile phase IV / RF, Acetone/Water/Hydrochloric acid (conc.), mobile phase IX / RF, Methanol/Water/Hydrochloric acid (conc.), mobile phase IX / RF, Dioxane/Water/Hydrochloric acid (conc.), mobile phase V / RF, Acetone/Water/Hydrochloric acid (conc.), mobile phase V / RF, Methanol/Water/Hydrochloric acid (conc.), mobile phase V / RF, Dioxane/Water/Hydrochloric acid (conc.), mobile phase VI / RF, Acetone/Water/Hydrochloric acid (conc.), mobile phase VI / RF, Methanol/Water/Hydrochloric acid (conc.), mobile phase VI / RF, Acetone/Water/Hydrochloric acid (conc.), mobile phase VII / RF, Methanol/Water/Hydrochloric acid (conc.), mobile phase VII / RF, Acetone/Water/Hydrochloric acid (conc.), mobile phase VIII / RF, Methanol/Water/Hydrochloric acid (conc.), mobile phase VIII: RP-18 silica; for RF, Methanol/Water/Hydrochloric acid (conc.), mobile phase I: I = 90%MeOH/5%H2O/5%HCl; for RF, Dioxane/Water/Hydrochloric acid (conc.), mobile phase II: II = 80%Dioxane/15%H2O/5%HCl; for RF, Methanol/Water/Hydrochloric acid (conc.), mobile phase II: II = 85%MeOH/10%H2O/5%HCl; for RF, Acetone/Water/Hydrochloric acid (conc.), mobile phase III: III = 70%AC/25%H2O/5%HCl; for RF, Dioxane/Water/Hydrochloric acid (conc.), mobile phase III: III = 70%Dioxane/25%H2O/5%HCl; for RF, Methanol/Water/Hydrochloric acid (conc.), mobile phase III: III = 80%MeOH/15%H2O/5%HCl; for RF, Dioxane/Water/Hydrochloric acid (conc.), mobile phase IV: IV = 60%Dioxane/35%H2O/5%HCl; for RF, Acetone/Water/Hydrochloric acid (conc.), mobile phase IV: IV = 65%AC/30%H2O/5%HCl; for RF, Methanol/Water/Hydrochloric acid (conc.), mobile phase IV: IV = 75%MeOH/20%H2O/5%HCl; for RF, Acetone/Water/Hydrochloric acid (conc.), mobile phase IX: IX = 40%AC/55%H2O/5%HCl; for RF, Methanol/Water/Hydrochloric acid (conc.), mobile phase IX: IX = 50%MeOH/45%H2O/5%HCl; for RF, Dioxane/Water/Hydrochloric acid (conc.), mobile phase V: V = 50%Dioxane/45%H2O/5%HCl; for RF, Acetone/Water/Hydrochloric acid (conc.), mobile phase V: V = 60%AC/35%H2O/5%HCl; for RF, Methanol/Water/Hydrochloric acid (conc.), mobile phase V: V = 70%MeOH/25%H2O/5%HCl; for RF, Dioxane/Water/Hydrochloric acid (conc.), mobile phase VI: VI = 40%Dioxane/55%H2O/5%HCl; for RF, Acetone/Water/Hydrochloric acid (conc.), mobile phase VI: VI = 55%AC/40%H2O/5%HCl; for RF, Methanol/Water/Hydrochloric acid (conc.), mobile phase VI: VI = 65%MeOH/30%H2O/5%HCl; for RF, Acetone/Water/Hydrochloric acid (conc.), mobile phase VII: VII = 50%AC/45%H2O/5%HCl; for RF, Methanol/Water/Hydrochloric acid (conc.), mobile phase VII: VII = 60%MeOH/35%H2O/5%HCl; for RF, Acetone/Water/Hydrochloric acid (conc.), mobile phase VIII: VIII = 45%AC/50%H2O/5%HCl; for RF, Methanol/Water/Hydrochloric acid (conc.), mobile phase VIII: VIII = 55%MeOH/40%H2O/5%HCl
Protocol: Chromatographic determination of lipophilicity
Merck, Darmstadt, Germany). The mobile phase contained organic modifier (methanol, acetone or dioxane), water and hydrochloric acid.
Methanol was varied in the range […]
with an increment of 10%. […]
before chromatogram development. The solvent developing distance was 4.5 cm. Detection of […]
All experiments were performed at ambient temperature (22±2 °C). Retention parameters were calculated as previously described. […]

[3] = molecular target: T1, purified human BChE (Homo sapiens, UniProt P06276); experiment: biochemical; assay type: biochemical
T1 construct: possibly also a gift of Dr Florian Nachon (the sentence is ambiguous)
T1 sequence (P06276 29-602): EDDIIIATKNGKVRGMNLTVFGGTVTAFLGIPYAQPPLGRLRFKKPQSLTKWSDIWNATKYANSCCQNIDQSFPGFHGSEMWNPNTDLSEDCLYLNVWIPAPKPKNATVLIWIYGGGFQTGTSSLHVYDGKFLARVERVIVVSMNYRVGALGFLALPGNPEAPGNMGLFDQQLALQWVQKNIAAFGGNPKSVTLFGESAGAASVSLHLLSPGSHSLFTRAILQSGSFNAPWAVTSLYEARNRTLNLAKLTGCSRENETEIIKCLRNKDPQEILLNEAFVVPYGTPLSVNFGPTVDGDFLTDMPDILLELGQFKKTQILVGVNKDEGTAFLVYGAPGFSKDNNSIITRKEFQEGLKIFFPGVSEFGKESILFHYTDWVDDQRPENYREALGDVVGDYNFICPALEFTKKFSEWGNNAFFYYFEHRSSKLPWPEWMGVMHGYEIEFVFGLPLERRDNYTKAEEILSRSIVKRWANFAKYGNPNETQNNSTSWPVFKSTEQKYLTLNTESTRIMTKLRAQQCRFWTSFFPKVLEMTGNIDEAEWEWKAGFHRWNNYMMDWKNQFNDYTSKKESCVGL
Protocol: (§1) Acetylthiocholine (ATCh) and 5,5′-dithiobis(2-nitrobenzoic acid) (DTNB) were purchased from Sigma-Aldrich, St. Louis, MO, USA. ATCh was dissolved in water and DTNB in 0.1 M sodium phosphate buffer (pH 7.4). The 4-aminoquinilines were dissolved in DMSO and all further dilutions were made in water.
(§2) The sources of AChE and BChE were purified human BChE and recombinant human AChE that was kindly provided by Dr Florian Nachon (Département de Toxicologie, Armed Forces Biomedical Research Institute, Brétigny-sur-Orge, France). […] The enzymes were diluted in sodium phosphate buffer 0.1 M (pH 7.4) containing 0.1% BSA.
(§3) Enzyme activities were measured spectrophotometrically using a slightly modified Ellman method, as described earlier. […] At least three inhibitor concentrations for each substrate concentration were used in at least three experiments. The apparent inhibition constant (Ki,app) was calculated using the Hunter–Downs Equation and linear regression analysis:(1) Ki,app=vi·i/v0−vi=Ki+Ki/KS·s where the y-intercept determines the enzyme-inhibitor dissociation constant (Ki), while the x-intercept determines the enzyme-substrate dissociation constant, KS.
(§4) The Hunter–Downs Equation was used under the assumption that the substrate, due to relatively low concentrations used in experiments, would bind only to the catalytic site of the enzymes, while the inhibitors would bind to both CAS and/or PAs. This allowed the type of inhibition to be determined from Ki,app vs. substrate concentration ([S]) dependency on Hunter–Downs plot.
(§5) The final content of DMSO in the measurements was up to 0.2%. […] The measurements were performed at 25 °C on a Tecan Infinite M200Pro plate reader (Tecan Austria GmbH, Salzburg, Austria).

[4] = molecular target: T2, recombinant human AChE (Homo sapiens, UniProt P22303); experiment: biochemical; assay type: biochemical; conditions: for IS: IS = Ki(BChE)/Ki(AChE), IS > 1 selective to AChE
T2 construct: gift of Dr Florian Nachon (Armed Forces Biomedical Research Institute, Brétigny-sur-Orge, France)
T2 sequence (P22303 32-614): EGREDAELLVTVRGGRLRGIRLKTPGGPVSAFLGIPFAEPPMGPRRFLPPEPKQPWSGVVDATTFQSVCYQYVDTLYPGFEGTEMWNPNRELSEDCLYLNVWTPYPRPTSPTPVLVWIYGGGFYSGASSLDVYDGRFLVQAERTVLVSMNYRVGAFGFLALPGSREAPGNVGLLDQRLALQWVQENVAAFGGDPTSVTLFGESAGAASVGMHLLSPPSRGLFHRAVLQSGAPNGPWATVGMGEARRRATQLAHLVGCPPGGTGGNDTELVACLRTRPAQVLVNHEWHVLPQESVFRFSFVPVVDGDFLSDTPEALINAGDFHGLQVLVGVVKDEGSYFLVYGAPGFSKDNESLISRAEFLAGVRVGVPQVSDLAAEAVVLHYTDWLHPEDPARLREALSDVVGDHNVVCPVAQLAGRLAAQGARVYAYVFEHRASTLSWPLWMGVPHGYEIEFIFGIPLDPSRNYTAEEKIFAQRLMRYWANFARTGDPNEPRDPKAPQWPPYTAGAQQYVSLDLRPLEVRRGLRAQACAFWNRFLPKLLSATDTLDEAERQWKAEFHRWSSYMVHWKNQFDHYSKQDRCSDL
Protocol: as §1, §2, §3, §4, §5

[5] = Acetone/Water/Hydrochloric acid (conc.)
[6] = Dioxane/Water/Hydrochloric acid (conc.)
[7] = Methanol/Water/Hydrochloric acid (conc.)
[8] = logarithm of Ki in µM, BChE, dependent variable of the QSAR model, read-out: Y Measured 2 log(ki)Bche, log (Ki/µM BChE) (converted)
[9] = ± standard error, 25 °C, ATCh substrate, read-out: Ki BChE
[10] = log (Ki/µM AChE), read-out: Y Measured 1 log(ki)Ache (converted)
[11] = ± standard error, 25 °C, ATCh substrate, read-out: Ki AChE

SMILES	FRAP ([1]; 100 µM compound) [µM]	FRAP ([1]; 10 µM compound) [µM]	RM0 [2, 5]	b [2, 5]	RM0 [2, 6]	b [2, 6]	RM0 [2, 7]	b [2, 7]	RF, Methanol/Water/Hydrochloric acid (conc.), mobile phase I [2]	RF, Dioxane/Water/Hydrochloric acid (conc.), mobile phase II [2]	RF, Methanol/Water/Hydrochloric acid (conc.), mobile phase II [2]	RF, Acetone/Water/Hydrochloric acid (conc.), mobile phase III [2]	RF, Dioxane/Water/Hydrochloric acid (conc.), mobile phase III [2]	RF, Methanol/Water/Hydrochloric acid (conc.), mobile phase III [2]	RF, Dioxane/Water/Hydrochloric acid (conc.), mobile phase IV [2]	RF, Acetone/Water/Hydrochloric acid (conc.), mobile phase IV [2]	RF, Methanol/Water/Hydrochloric acid (conc.), mobile phase IV [2]	RF, Acetone/Water/Hydrochloric acid (conc.), mobile phase IX [2]	RF, Methanol/Water/Hydrochloric acid (conc.), mobile phase IX [2]	RF, Dioxane/Water/Hydrochloric acid (conc.), mobile phase V [2]	other results
Cc1cc(C(C)(C)C)c(O)c(C(C)(C)C)c1 [BHT, butylated hydroxytoluene, reference compound]	3021 ± 117	–	–	–	–	–	–	–	–	–	–	–	–	–	–	–	–	–	–	–	–
Clc1ccc2c(NCCNCC34CC5CC(CC(C5)C3)C4)ccnc2c1 [Compound 1]	20 ± 4	2.4 ± 1.3	1.738	2.883	0.8129	1.796	2.081	2.812	0.72	0.78	0.68	0.62	0.73	0.54	0.73	0.59	0.55	0.16	0.15	0.55	RF, Acetone/Water/Hydrochloric acid (conc.), mobile phase V [2]: 0.51; RF, Methanol/Water/Hydrochloric acid (conc.), mobile phase V [2]: 0.48; RF, Dioxane/Water/Hydrochloric acid (conc.), mobile phase VI [2]: 0.4; RF, Acetone/Water/Hydrochloric acid (conc.), mobile phase VI [2]: 0.41; RF, Methanol/Water/Hydrochloric acid (conc.), mobile phase VI [2]: 0.43; RF, Acetone/Water/Hydrochloric acid (conc.), mobile phase VII [2]: 0.36; RF, Methanol/Water/Hydrochloric acid (conc.), mobile phase VII [2]: 0.28; RF, Acetone/Water/Hydrochloric acid (conc.), mobile phase VIII [2]: 0.32; RF, Methanol/Water/Hydrochloric acid (conc.), mobile phase VIII [2]: 0.22; less potent inhibitors of BChE than compounds 3 or 4 [3]: about 3.2 times; Ki [3, 8]: 2.1 µM; Ki [3, 9]: 2.1 ± 0.2 µM; IS [4]: 1.8; Ki [4, 10]: 1.2 µM; Ki [4, 11]: 1.2 ± 0.1 µM
Clc1ccc2c(NCCCCNCC34CC5CC(CC(C5)C3)C4)ccnc2c1 [Compound 3]	38 ± 6	0	1.838	3.04	0.7921	1.783	2.348	3.092	0.71	0.78	0.65	0.63	0.74	0.51	0.74	0.58	0.53	0.15	0.11	0.55	RF, Acetone/Water/Hydrochloric acid (conc.), mobile phase V [2]: 0.51; RF, Methanol/Water/Hydrochloric acid (conc.), mobile phase V [2]: 0.44; RF, Dioxane/Water/Hydrochloric acid (conc.), mobile phase VI [2]: 0.41; RF, Acetone/Water/Hydrochloric acid (conc.), mobile phase VI [2]: 0.41; RF, Methanol/Water/Hydrochloric acid (conc.), mobile phase VI [2]: 0.37; RF, Acetone/Water/Hydrochloric acid (conc.), mobile phase VII [2]: 0.35; RF, Methanol/Water/Hydrochloric acid (conc.), mobile phase VII [2]: 0.25; RF, Acetone/Water/Hydrochloric acid (conc.), mobile phase VIII [2]: 0.3; RF, Methanol/Water/Hydrochloric acid (conc.), mobile phase VIII [2]: 0.18; Ki [3, 8]: 0.92 µM; Ki [3, 9]: 0.92 ± 0.04 µM; IS [4]: 0.9; Ki [4, 10]: 1 µM; Ki [4, 11]: 1 µM
Nc1c2c(nc3ccccc13)CCCC2 [Tacrine, reference compound]	15 ± 2	3.4 ± 0.0	–	–	–	–	–	–	–	–	–	–	–	–	–	–	–	–	–	–	reducing power (in words) ([1]; 10 and 100 µM): negligible reducing power
Cc1c(C)c2c(c(C)c1O)CCC(C)(C(=O)O)O2 (stereo not drawn) [Trolox, reference compound]	5812 ± 68	523 ± 8	–	–	–	–	–	–	–	–	–	–	–	–	–	–	–	–	–	–	–
